Laboratory results published in patent US10246411B2, “(Z)-3,4,5-trimethoxystyrylbenzenesulfonamides as potential anticancer agents” (COUNCIL OF SCIENTIFIC & INDUSTRIAL RESEARCH, priority 2014, dated 2019).

What was measured:
[1] = system: HL-60(TB); assay: In vitro cytotoxicity (NCI protocol, SRB), HL-60(TB); format: cell-based; details: Homo sapiens, Leukemia HL-60(TB), 48 h exposure
[2] = system: SR; assay: In vitro cytotoxicity (NCI protocol, SRB), SR; details: Homo sapiens, 48 h
[3] = system: M14; assay: In vitro cytotoxicity (NCI protocol, SRB), M14; details: Homo sapiens, M14, 48 h
[4] = system: U251; assay: In vitro cytotoxicity (NCI protocol, SRB), U251; details: Homo sapiens, U-251, 48 h
[5] = system: 786-0; assay: In vitro cytotoxicity (NCI protocol, SRB), 786-0; details: Homo sapiens, 786-0, 48 h
[6] = system: SN12C; assay: In vitro cytotoxicity (NCI protocol, SRB), SN12C; details: Homo sapiens, 48 h
[7] = system: MOLT-4; assay: In vitro cytotoxicity (NCI protocol, SRB), MOLT-4; details: Homo sapiens, MOLT-4, 48 h
[8] = system: TK-10; assay: In vitro cytotoxicity (NCI protocol, SRB), TK-10; details: Homo sapiens, TK-10, 48 h
[9] = system: HOP-62; assay: In vitro cytotoxicity (NCI protocol, SRB), HOP-62; details: Homo sapiens, HOP-62, 48 h
[10] = system: SF-268; assay: In vitro cytotoxicity (NCI protocol, SRB), SF-268; details: Homo sapiens, SF-268, 48 h
[11] = system: SF-295; assay: In vitro cytotoxicity (NCI protocol, SRB), SF-295; details: Homo sapiens, SF-295, 48 h
[12] = system: SF-539; assay: In vitro cytotoxicity (NCI protocol, SRB), SF-539; details: Homo sapiens, 48 h
[13] = system: IGROV1; assay: In vitro cytotoxicity (NCI protocol, SRB), IGROV1; details: Homo sapiens, IGROV-1, 48 h
[14] = system: DU-145; assay: In vitro cytotoxicity (NCI protocol, SRB), DU-145; details: Homo sapiens, DU-145, 48 h
[15] = system: BT-549; assay: In vitro cytotoxicity (NCI protocol, SRB), BT-549; details: Homo sapiens, BT-549, 48 h
[16] = system: UACC-62; assay: In vitro cytotoxicity (NCI protocol, SRB), UACC-62; details: Homo sapiens, UACC-62, 48 h
[17] = system: OVCAR-4; assay: In vitro cytotoxicity (NCI protocol, SRB), OVCAR-4; details: Homo sapiens, OVCAR-4, 48 h
[18] = system: OVCAR-5; assay: In vitro cytotoxicity (NCI protocol, SRB), OVCAR-5; details: Homo sapiens, OVCAR-5, 48 h
[19] = system: OVCAR-8; assay: In vitro cytotoxicity (NCI protocol, SRB), OVCAR-8; details: Homo sapiens, OVCAR-8, 48 h
[20] = system: RXF 393; assay: In vitro cytotoxicity (NCI protocol, SRB), RXF 393; details: Homo sapiens, RXF 393, 48 h
[21] = system: HS 578T; assay: In vitro cytotoxicity (NCI protocol, SRB), HS 578T; details: Homo sapiens, 48 h
[22] = system: NCI-H226; assay: In vitro cytotoxicity (NCI protocol, SRB), NCI-H226; details: Homo sapiens, NCI-H226, 48 h
[23] = system: NCIH322M; assay: In vitro cytotoxicity (NCI protocol, SRB), NCIH322M; details: Homo sapiens, NCI-H322M, 48 h
[24] = system: NCI-H460; assay: In vitro cytotoxicity (NCI protocol, SRB), NCI-H460; details: Homo sapiens, NCI-H460, 48 h
[25] = system: COLO-205; assay: In vitro cytotoxicity (NCI protocol, SRB), COLO-205; details: Homo sapiens, COLO 205, 48 h
[26] = system: LOX IMVI; assay: In vitro cytotoxicity (NCI protocol, SRB), LOX IMVI; details: Homo sapiens, 48 h
[27] = system: MALME-3M; assay: In vitro cytotoxicity (NCI protocol, SRB), MALME-3M; details: Homo sapiens, 48 h
[28] = system: UACC-257; assay: In vitro cytotoxicity (NCI protocol, SRB), UACC-257; details: Homo sapiens, UACC-257, 48 h
[29] = system: NCI/ADR-RES; assay: In vitro cytotoxicity (NCI protocol, SRB), NCI/ADR-RES; details: Homo sapiens, 48 h
[30] = system: MDA-MB-231/ATCC; assay: In vitro cytotoxicity (NCI protocol, SRB), MDA-MB-231/ATCC; details: Homo sapiens, MDA-MB-231, 48 h
[31] = system: MDA-MB-435; assay: In vitro cytotoxicity (NCI protocol, SRB), MDA-MB-435 (melanoma panel); details: Melanoma MDA-MB-435, 48 h exposure
[32] = system: MDA-MB-435; assay: In vitro cytotoxicity (NCI protocol, SRB), MDA-MB-435 (breast panel line); details: Homo sapiens, MDA-MB-435, 48 h

Row | Compound | GI50 [1] [nM] | GI50 [2] [nM] | GI50 [3] [nM] | GI50 [4] [nM] | GI50 [5] [nM] | GI50 [6] [nM] | GI50 [7] [nM] | GI50 [8] [nM] | GI50 [9] [nM] | GI50 [10] [nM] | GI50 [11] [nM] | GI50 [12] [nM] | GI50 [13] [nM] | GI50 [14] [nM] | GI50 [15] [nM] | GI50 [16] [nM] | GI50 [17] [nM] | GI50 [18] [nM] | GI50 [19] [nM] | GI50 [20] [nM] | other results
1 | COc1ccc(S(=O)(=O)Nc2cc(/C=C\c3cc(OC)c(OC)c(OC)c3)ccc2OC)cc1 [12a, (Z)-4-methoxy-N-(2-methoxy-5-(3,4,5-trimethoxystyryl)phenyl)benzenesulfonamide] | 195 | 70.9 | 103 | 108 | 361 | 682 | 388 | 76.8 | 41 | 401 | 39.3 | 126 | 166 | 341 | 197 | 49 | 581 | 323 | 276 | 81.4 | GI50 [21]: 226 nM; GI50 [22]: 12.8 µM; GI50 [23]: 430 nM; GI50 [24]: 178 nM; GI50 [25]: 38.3 nM; GI50 [26]: 272 nM; GI50 [27]: 52.7 nM; GI50 [28]: 2.98 µM; GI50 [29]: 71.1 nM; GI50 [30]: 399 nM; GI50 ([31]; Homo sapiens, MDA-MB-435, 48 h): 27.4 nM; GI50 [32]: 168 nM
2 | COc1ccc(S(=O)(=O)Nc2cc(/C=C\c3cc(OC)c(OC)c(OC)c3)cc(OC)c2OC)cc1 [13a, (Z)—N-(2,3-dimethoxy-5-(3,4,5-trimethoxystyryl)phenyl)-4-methoxybenzenesulfonamide] | 23.4 | 35.2 | 30.1 | 35.7 | 57.9 | 69.8 | 49.5 | 65 | 40.5 | 57.5 | 31.1 | 25.3 | 57.7 | 41.6 | 42.5 | 46.1 | 84.2 | 49.9 | 45.9 | 40.1 | GI50 [21]: 45.2 nM; GI50 [22]: 27.3 µM; GI50 [23]: 55.3 nM; GI50 [24]: 36.7 nM; GI50 [25]: 21.4 nM; GI50 [26]: 50 nM; GI50 [27]: 12600 nM; GI50 [28]: 4.1 µM; GI50 [29]: 35.3 nM; GI50 [30]: 47.9 nM; GI50 ([31]; Homo sapiens, MDA-MB-435, 48 h): 21.1 nM; GI50 [32]: 42 nM
3 | COc1cc(/C=C\c2cc(OC)c(OC)c(OC)c2)cc(NS(=O)(=O)c2ccc(Cl)cc2)c1OC [13c, (Z)-4-chloro-N-(2,3-dimethoxy-5-(3,4,5-trimethoxystyryl)phenyl)benzenesulfonamide] | 249 | 406 | 391 | 461 | 666 | 750 | 672 | 779 | 414 | 1100 | 319 | 303 | 914 | 507 | 966 | 435 | 1530 | 726 | 600 | 272 | GI50 [21]: 351 nM; GI50 [22]: 13.5 µM; GI50 [23]: 759 nM; GI50 [24]: 364 nM; GI50 [25]: 252 nM; GI50 [26]: 566 nM; GI50 [28]: 12.5 µM; GI50 [29]: 364 nM; GI50 [30]: 1160 nM; GI50 ([31]; Homo sapiens, MDA-MB-435, 48 h): 188 nM; GI50 [32]: 271 nM
4 | COc1ccc(S(=O)(=O)Nc2c(/C=C\c3cc(OC)c(OC)c(OC)c3)ccc(OC)c2O)cc1 [17a, (Z)—N-(2-hydroxy-3-methoxy-6-(3,4,5-trimethoxystyryl)phenyl)-4-methoxybenzenesulfonamide] | 23.5 | 31.9 | 31.3 | 37.4 | 375 | 86.9 | 42.3 | 73.2 | 39.7 | 83.9 | 33.9 | 29.3 | 54 | 42.5 | 50.1 | 38.9 | 76.3 | 1020 | 46.6 | 31.8 | GI50 [21]: 47 nM; GI50 [22]: 4.13 µM; GI50 [23]: 63.3 nM; GI50 [24]: 36.8 nM; GI50 [25]: 406 nM; GI50 [26]: 45.5 nM; GI50 [27]: 1510 nM; GI50 [29]: 155 nM; GI50 [30]: 50.3 nM; GI50 ([31]; Homo sapiens, MDA-MB-435, 48 h): 19 nM; GI50 [31]: 19.2 nM; GI50 [32]: 43.9 nM
5 | COc1ccc(/C=C\c2cc(OC)c(OC)c(OC)c2)c(NS(=O)(=O)c2ccc(Cl)cc2)c1O [17c, (Z)-4-chloro-N-(2-hydroxy-3-methoxy-6-(3,4,5-trimethoxystyryl)phenyl)benzenesulfonamide] | 33.1 | 30.6 | 91.3 | 287 | 572 | 708 | 31.5 | 998 | 671 | 380 | 256 | 37 | 379 | 200 | 353 | 63.5 | 97.2 | 2860 | 294 | 35.5 | GI50 [21]: 292 nM; GI50 [22]: 24.9 µM; GI50 [23]: 485 nM; GI50 [24]: 316 nM; GI50 [25]: 1740 nM; GI50 [26]: 153 nM; GI50 [28]: 14.2 µM; GI50 [29]: 263 nM; GI50 [30]: 206 nM; GI50 ([31]; Homo sapiens, MDA-MB-435, 48 h): 22.2 nM; GI50 [32]: 36.7 nM
